Test results from ChEMBL document CHEMBL1157047, “Designing inhibitors against fructose 1,6-bisphosphatase: exploring natural products for novel inhibitor scaffolds” (Eur J Med Chem, 2010).

How the values were obtained:
[1] = target: T1, Fructose-1,6-bisphosphatase 1 (Homo sapiens, UniProt P09467); experiment: Inhibition of human liver fructose-1,6-bisphosphatase expressed in Escherichia coli BL21 (DE3) assessed as reduction of NADP+ to NADPH by phosphoglucose isomerase/glucose-6-phosphate dehydrogenase coupled assay
T1 sequence (P09467 whole entry): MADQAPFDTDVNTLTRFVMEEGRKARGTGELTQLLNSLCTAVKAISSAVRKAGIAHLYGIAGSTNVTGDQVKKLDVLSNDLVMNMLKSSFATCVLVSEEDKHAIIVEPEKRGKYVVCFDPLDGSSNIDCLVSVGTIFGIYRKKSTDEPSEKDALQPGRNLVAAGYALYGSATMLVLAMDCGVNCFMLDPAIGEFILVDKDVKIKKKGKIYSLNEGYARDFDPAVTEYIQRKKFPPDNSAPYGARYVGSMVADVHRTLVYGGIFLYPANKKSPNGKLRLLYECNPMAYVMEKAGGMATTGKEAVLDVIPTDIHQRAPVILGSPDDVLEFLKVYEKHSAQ

[2] = target: T2, Fructose-1,6-bisphosphatase 1 (Sus scrofa, UniProt P00636); experiment: Inhibition of pig kidney fructose-1,6-bisphosphatase expressed in Escherichia coli BL21 (DE3) assessed as reduction of NADP+ to NADPH by phosphoglucose isomerase/glucose-6-phosphate dehydrogenase coupled assay
T2 sequence (P00636 whole entry): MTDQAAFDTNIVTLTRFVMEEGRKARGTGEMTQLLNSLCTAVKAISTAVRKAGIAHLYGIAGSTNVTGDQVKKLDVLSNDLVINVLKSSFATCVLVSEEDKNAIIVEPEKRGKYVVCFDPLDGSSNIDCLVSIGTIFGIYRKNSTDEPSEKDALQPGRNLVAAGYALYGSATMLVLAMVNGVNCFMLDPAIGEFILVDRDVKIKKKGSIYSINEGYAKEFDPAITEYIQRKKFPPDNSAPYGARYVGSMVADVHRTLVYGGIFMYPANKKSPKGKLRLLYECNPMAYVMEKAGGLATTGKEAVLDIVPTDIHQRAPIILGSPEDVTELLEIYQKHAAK

Row | IC50 [2] | IC50 [1] | Structure (SMILES) | IC50 ([1]; read-out: IC50) [µM]
1 |  |  | CC(=O)C1=C(O)C=C2Oc3c(C(C)=O)c(O)c(C)c(O)c3[C@@]2(C)C1=O [(+)-USNIC ACID] | 371
2 |  |  | Nc1ncnc2c1ncn2[C@@H]1O[C@H](COP(=O)(O)O)[C@@H](O)[C@H]1O [ADENOSINE PHOSPHATE] | 9.8
3 | Not Active | Not Active | Oc1cc(O)c2c(c1)oc1cc(O)cc(O)c12 | 
